In patent US20090131481A1, “Transcription Factor Modulating Compounds and Methods of Use Thereof” (Paratek Pharmaceuticals, Inc., published 2009):
Like-named read-outs stand apart in the source and are kept apart here.

Assays:
[1] = system: P. aeruginosa; assay: P. aeruginosa cytotoxicity whole cell assay (J774 cells, LDH release); settings: relative to vehicle treated cells infected with wild type P. aeruginosa
[2] = system: Y. pseudotuberculosis; assay: microbe, parasite or virus in culture; settings: Yersinia pseudotuberculosis, J774, read-out: % Cytotoxicity
[3] = biological target: LcrF (VirF) (Yersinia pestis, UniProt P28808); assay: biochemical; format: binding, Y. pseudotuberculosis
[4] = biological target: T1, ExsA (Pseudomonas aeruginosa, UniProt P26993); assay: Chemiluminescence-based ExsA-DNA binding assay; parameters: species or system P. aeruginosa; settings: Table 7, cell-free system; read-out: ExsA EC50
T1 construct: made in house
T1 sequence (P26993 1-278): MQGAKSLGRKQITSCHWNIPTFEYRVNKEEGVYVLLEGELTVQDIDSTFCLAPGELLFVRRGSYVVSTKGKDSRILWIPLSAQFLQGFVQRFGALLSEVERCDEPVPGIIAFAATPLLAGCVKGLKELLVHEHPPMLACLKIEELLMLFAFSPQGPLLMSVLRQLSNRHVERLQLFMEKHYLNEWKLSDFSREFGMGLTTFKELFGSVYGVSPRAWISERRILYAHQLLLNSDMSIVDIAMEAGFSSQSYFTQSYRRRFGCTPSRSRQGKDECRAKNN

[5] = EC50 for inhibition of LcrF(VirF)-DNA binding
[6] = read-out: EC50 for inhibition of LcrF(VirF)-DNA binding

Sequence of LcrF (VirF) (P28808 whole entry, looked up): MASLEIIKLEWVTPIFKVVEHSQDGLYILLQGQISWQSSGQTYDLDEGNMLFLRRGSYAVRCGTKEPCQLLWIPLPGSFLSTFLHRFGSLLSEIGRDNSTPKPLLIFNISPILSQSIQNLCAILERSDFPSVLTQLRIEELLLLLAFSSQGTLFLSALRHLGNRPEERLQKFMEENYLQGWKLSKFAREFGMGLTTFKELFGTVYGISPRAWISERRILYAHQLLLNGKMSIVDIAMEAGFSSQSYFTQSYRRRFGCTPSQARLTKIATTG

With `O=C(/C=C/c1ccc(F)cc1F)Nc1ccc(-c2nc3ccc([N+](=O)[O-])cc3n2O)nc1` [EA] the “Cytotoxicity at 50 μg/mL Pseudomonas” value [1] was “* (reduced P. aeruginosa cytotoxicity to 99-75% of untreated, wild type levels at 50 mg/mL)” and the activity at 50 µg/mL [2] was under 75%.

`O=C(/C=C/c1ccc(F)cc1)Nc1ccc(-c2nc3cc(F)c([N+](=O)[O-])cc3n2O)cc1` [FA, N-[4-(5-Fluoro-1-hydroxy-6-nitro-1H-benzoimidazol-2-yl)-phenyl]-3-(4-fluoro-cinnamyl)-amide] was tested, and the “Cytotoxicity at 50 μg/mL Pseudomonas” value [1] was “** (reduced P. aeruginosa cytotoxicity below 75% of untreated, wild type levels at 50 mg/mL)”, the EC50 [3, 5] was over 25 µM and the EC50 [4] was 10 to 25 µM.

In the case of `CC(=O)c1ccc(C(=O)Nc2ccc(-c3nc4ccc([N+](=O)[O-])cc4n3O)cc2F)cc1` [EM, 4-Acetyl-N-[2-fluoro-4-(1-hydroxy-6-nitro-H-benzoimidazol-2-yl)-phenyl]-benzamide], the “Cytotoxicity at 50 μg/mL Pseudomonas” value [1] is reported as “* (reduced P. aeruginosa cytotoxicity to 99-75% of untreated, wild type levels at 50 mg/mL)”, the EC50 [3, 5] is reported as 10 to 25 µM and the activity at 50 µg/mL [2] is reported as under 75%.

For `CCOc1cc2nc(-c3ccc(NC(=O)/C=C/c4ccc(F)cc4)cc3)n(O)c2cc1[N+](=O)[O-]` [EV, (E)-N-[4-(5-Ethoxy-1-hydroxy-6-nitro-1H-benzoimidazol-2-yl)-phenyl]-3-(4-fluoro-phenyl)-acrylamide], the “Cytotoxicity at 50 μg/mL Pseudomonas” value [1] was “** (reduced P. aeruginosa cytotoxicity below 75% of untreated, wild type levels at 50 mg/mL)”, the EC50 [3, 5] was 10 to 25 µM and the activity at 50 µg/mL [2] was 75 to 99%.

For `COc1ccc(/C=C/C(=O)Nc2ccc(-c3nc4ccc([N+](=O)[O-])cc4n3O)cc2)c(OC)c1` [AK], the “Cytotoxicity at 50 μg/mL Pseudomonas” value [1] was “* (reduced P. aeruginosa cytotoxicity to 99-75% of untreated, wild type levels at 50 mg/mL)”, the EC50 [3, 5] was over 25 µM and the activity at 50 µg/mL [2] was 75 to 99%.

In the case of `O=C(/C=C/c1ccc(F)cc1)Nc1ccc(-c2nc3ccc([N+](=O)[O-])cc3n2OCP(=O)(O)O)cc1` [DW, (2-{4-[(E)-3-(4-Fluoro-phenyl)-acrloylamino]-phenyl}-6-nitro-benzoimidazol-1-yloxymethyl)-phosphonic acid], the “Cytotoxicity at 50 μg/mL Pseudomonas” value [1] is reported as “* (reduced P. aeruginosa cytotoxicity to 99-75% of untreated, wild type levels at 50 mg/mL)” and the activity at 50 µg/mL [2] is reported as 75 to 99%.

`CC(=O)c1ccc(C(=O)Nc2ccc(-c3nc4ccc(-n5cccn5)cc4n3O)cc2)cc1` [FY, 4-Acetyl-N-[4-(1-hdroxyy-6-pyrazol-1-yl-1H-benzoimidazol-2-yl)-phenyl]-benzamide] was tested, and the “Cytotoxicity at 50 μg/mL Pseudomonas” value [1] was “* (reduced P. aeruginosa cytotoxicity to 99-75% of untreated, wild type levels at 50 mg/mL)”, the EC50 [3, 6] was over 25 µM and the EC50 [4] was over 25 µM.

For `CC(=O)c1ccc(C(=O)Nc2ccc(-c3nc4ccc(-n5ccnc5)cc4n3O)cc2)cc1` [FZ, 4-Acetyl-N-[4-(1-hdroxy-6-imidazol-1-yl-1H-benzoimidazol-2-yl)-phenyl]-benzamide], the “Cytotoxicity at 50 μg/mL Pseudomonas” value [1] was “* (reduced P. aeruginosa cytotoxicity to 99-75% of untreated, wild type levels at 50 mg/mL)” and the EC50 [4] was over 25 µM.

With `Cc1cc2nc(-c3ccc(NC(=O)/C=C/c4ccc(F)cc4)cc3)n(O)c2cc1[N+](=O)[O-]` [EO, (E)-3-(4-Fluoro-phenyl)-N-[4-(1-hydroxy-5-methyl-6-nitro-1H-benzoimidazol-2-yl)-phenyl]-acrylamide] the “Cytotoxicity at 50 μg/mL Pseudomonas” value [1] was “** (reduced P. aeruginosa cytotoxicity below 75% of untreated, wild type levels at 50 mg/mL)” and the activity at 50 µg/mL [2] was 75 to 99%.

`O=C(/C=C/c1ccc(F)cc1)Nc1ccc(-c2nc3ccc(-n4cccn4)cc3n2O)cc1` [FX, (E)-3-(4-Fluoro-phenyl)-N-[4-(1-hydroxy-6-pyrazol-1-yl-1H-benzoimidazol-2-yl)-phenyl]-acrylamide] was tested, and the “Cytotoxicity at 50 μg/mL Pseudomonas” value [1] was “* (reduced P. aeruginosa cytotoxicity to 99-75% of untreated, wild type levels at 50 mg/mL)”, the EC50 [3, 5] was over 25 µM and the EC50 [4] was over 25 µM.

`N#Cc1ccc2nc(-c3ccc(NC(=O)c4ccc(-n5ccnc5)cc4)cc3)n(O)c2c1` [GA] was tested, and the “Cytotoxicity at 50 μg/mL Pseudomonas” value [1] was “** (reduced P. aeruginosa cytotoxicity below 75% of untreated, wild type levels at 50 mg/mL)”, the EC50 [3, 5] was 10 to 25 µM and the EC50 [4] was 10 to 25 µM.

With `CC(=O)c1ccc(/C=C/C(=O)Nc2ccc(-c3nc4ccc(C#N)cc4n3O)cc2)cc1` [FW] the “Cytotoxicity at 50 μg/mL Pseudomonas” value [1] was “** (reduced P. aeruginosa cytotoxicity below 75% of untreated, wild type levels at 50 mg/mL)”, the EC50 [3, 5] was 10 to 25 µM and the EC50 [4] was 10 to 25 µM.

In the case of `O=C(/C=C/c1ccc(-n2ccnc2)nc1)Nc1ccc(-c2nc3ccc([N+](=O)[O-])cc3n2O)cc1` [GS], the “Cytotoxicity at 50 μg/mL Pseudomonas” value [1] is reported as “** (reduced P. aeruginosa cytotoxicity below 75% of untreated, wild type levels at 50 mg/mL)” and the EC50 [4] is reported as 10 to 25 µM.

With `CC(=O)c1ccc(/C=C/C(=O)Nc2ccc(-c3nc4ccc([N+](=O)[O-])cc4n3O)cc2)cn1` [GN] the “Cytotoxicity at 50 μg/mL Pseudomonas” value [1] was “** (reduced P. aeruginosa cytotoxicity below 75% of untreated, wild type levels at 50 mg/mL)” and the EC50 [4] was under 10 µM.

`CCOP(=O)(Cc1cc(/C=C/C(=O)Nc2ccc(-c3nc4ccc([N+](=O)[O-])cc4n3O)cc2)ccc1F)OCC` [EF] was tested, and the “Cytotoxicity at 50 μg/mL Pseudomonas” value [1] was “* (reduced P. aeruginosa cytotoxicity to 99-75% of untreated, wild type levels at 50 mg/mL)” and the activity at 50 µg/mL [2] was under 75%.

`CC(=O)c1ccc(/C=C/C(=O)Nc2ccc(-c3nc4ccc(C(C)=O)cc4n3O)cc2)cc1` [GI] was tested, and the “Cytotoxicity at 50 μg/mL Pseudomonas” value [1] was “* (reduced P. aeruginosa cytotoxicity to 99-75% of untreated, wild type levels at 50 mg/mL)” and the EC50 [4] was over 25 µM.

With `O=C(/C=C/c1ccc(F)cc1F)Nc1ccc(-c2nc3ccc([N+](=O)[O-])cc3n2O)cn1` [EB] the “Cytotoxicity at 50 μg/mL Pseudomonas” value [1] was “* (reduced P. aeruginosa cytotoxicity to 99-75% of untreated, wild type levels at 50 mg/mL)” and the activity at 50 µg/mL [2] was under 75%.

For `N#Cc1ccc(C(=O)Nc2ccc(-c3nc4ccc(C#N)cc4n3O)cc2)cc1` [CO], the “Cytotoxicity at 50 μg/mL Pseudomonas” value [1] was “* (reduced P. aeruginosa cytotoxicity to 99-75% of untreated, wild type levels at 50 mg/mL)” and the activity at 50 µg/mL [2] was 75 to 99%.

`CN(C)CCOc1cc2nc(-c3ccc(NC(=O)/C=C/c4ccc(F)cc4)cc3)n(O)c2cc1[N+](=O)[O-]` [FS] was tested, and the “Cytotoxicity at 50 μg/mL Pseudomonas” value [1] was “* (reduced P. aeruginosa cytotoxicity to 99-75% of untreated, wild type levels at 50 mg/mL)” and the EC50 [4] was over 25 µM.

With `O=C(/C=C/c1ccc(F)cc1)Nc1ccc(-c2nc3ccc([N+](=O)[O-])cc3n2O)c(F)c1` [EI] the “Cytotoxicity at 50 μg/mL Pseudomonas” value [1] was “* (reduced P. aeruginosa cytotoxicity to 99-75% of untreated, wild type levels at 50 mg/mL)”, the activity at 50 µg/mL [2] was 75 to 99% and the EC50 [4] was 10 to 25 µM.

`CC(=O)c1ccc(/C=C/C(=O)Nc2ccc(-c3nc4ccc(S(N)(=O)=O)cc4n3O)cc2)cc1` [GF] was tested, and the “Cytotoxicity at 50 μg/mL Pseudomonas” value [1] was “* (reduced P. aeruginosa cytotoxicity to 99-75% of untreated, wild type levels at 50 mg/mL)” and the EC50 [4] was 10 to 25 µM.

With `O=C(/C=C/c1ccc(F)cc1)Nc1ccc(-c2nc3ccc(-n4ccnc4)cc3n2O)cc1` [FT] the “Cytotoxicity at 50 μg/mL Pseudomonas” value [1] was “* (reduced P. aeruginosa cytotoxicity to 99-75% of untreated, wild type levels at 50 mg/mL)”, the EC50 [3, 5] was over 25 µM and the EC50 [4] was 10 to 25 µM.

For `CC(=O)c1ccc(/C=C/C(=O)Nc2ccc(-c3nc4ccc(S(C)(=O)=O)cc4n3O)cc2)cc1` [GK], the “Cytotoxicity at 50 μg/mL Pseudomonas” value [1] was “* (reduced P. aeruginosa cytotoxicity to 99-75% of untreated, wild type levels at 50 mg/mL)” and the EC50 [4] was over 25 µM.

For `CC(=O)c1ccc(/C=C/C(=O)Nc2ccc(-c3nc4cc(OCCN5CCOCC5)c([N+](=O)[O-])cc4n3O)cc2)cc1` [FV], the “Cytotoxicity at 50 μg/mL Pseudomonas” value [1] was “** (reduced P. aeruginosa cytotoxicity below 75% of untreated, wild type levels at 50 mg/mL)”, the EC50 [3, 6] was over 25 µM and the EC50 [4] was over 25 µM.

In the case of `CN(C)C(=O)c1ccc(C(=O)Nc2ccc(-c3nc4ccc([N+](=O)[O-])cc4n3O)cc2)cc1` [FB], the “Cytotoxicity at 50 μg/mL Pseudomonas” value [1] is reported as “* (reduced P. aeruginosa cytotoxicity to 99-75% of untreated, wild type levels at 50 mg/mL)”, the activity at 50 µg/mL [2] is reported as under 75% and the EC50 [4] is reported as over 25 µM.

In the case of `O=C(Nc1ccc(-c2nc3ccc([N+](=O)[O-])cc3n2O)cc1)/C(=C/c1ccccc1)c1ccccc1` [CQ], the “Cytotoxicity at 50 μg/mL Pseudomonas” value [1] is reported as “** (reduced P. aeruginosa cytotoxicity below 75% of untreated, wild type levels at 50 mg/mL)”, the activity at 50 µg/mL [2] is reported as under 75% and the EC50 [4] is reported as 10 to 25 µM.

For `CC(=O)c1ccc(/C=C/C(=O)N(CC(N)=O)c2ccc(-c3nc4ccc(C#N)cc4n3O)cc2)cc1` [GQ], the “Cytotoxicity at 50 μg/mL Pseudomonas” value [1] was “* (reduced P. aeruginosa cytotoxicity to 99-75% of untreated, wild type levels at 50 mg/mL)” and the EC50 [4] was over 25 µM.

In the case of `N#Cc1ccc2nc(-c3ccc(NC(=O)/C=C/c4ccc(-n5ccnc5)nc4)cc3)n(O)c2c1` [GV], the “Cytotoxicity at 50 μg/mL Pseudomonas” value [1] is reported as “** (reduced P. aeruginosa cytotoxicity below 75% of untreated, wild type levels at 50 mg/mL)” and the EC50 [4] is reported as over 25 µM.

`CC(=O)c1ccc(/C=C/C(=O)Nc2ccc(-c3nc4ccc(C(F)(F)F)cc4n3O)cc2)cc1` [GE] was tested, and the “Cytotoxicity at 50 μg/mL Pseudomonas” value [1] was “* (reduced P. aeruginosa cytotoxicity to 99-75% of untreated, wild type levels at 50 mg/mL)” and the EC50 [4] was 10 to 25 µM.

For `CC(=O)c1ccc(/C=C/C(=O)Nc2ccc(-c3nc4ccc(C(=O)O)cc4n3O)cc2)cc1` [GL], the “Cytotoxicity at 50 μg/mL Pseudomonas” value [1] was “** (reduced P. aeruginosa cytotoxicity below 75% of untreated, wild type levels at 50 mg/mL)” and the EC50 [4] was over 25 µM.

With `CC(=O)c1ccc(C(=O)Nc2ccc(-c3nc4cc(C)c([N+](=O)[O-])cc4n3O)cc2)cc1` [EQ] the “Cytotoxicity at 50 μg/mL Pseudomonas” value [1] was “* (reduced P. aeruginosa cytotoxicity to 99-75% of untreated, wild type levels at 50 mg/mL)” and the activity at 50 µg/mL [2] was under 75%.

For `O=C(/C=C/c1ccc(F)cc1)Nc1ccc(-c2nc3ccc([N+](=O)[O-])cc3n2O)cn1` [DY], the “Cytotoxicity at 50 μg/mL Pseudomonas” value [1] was “* (reduced P. aeruginosa cytotoxicity to 99-75% of untreated, wild type levels at 50 mg/mL)” and the activity at 50 µg/mL [2] was under 75%.
